Measurements: article PMC6768028, “Synthesis, SAR and in vitro therapeutic potentials of thiazolidine-2,4-diones” (Chemistry Central Journal, 2018)
In brackets after ≈: the same amount, converted by molar mass. Where two headings read alike, the source gives them in different places.

How the values were obtained:
Bacillus subtilis = experiment: Antimicrobial activity, tube dilution method (MIC); format: cell-based; conditions: 24 h, read-out: Minimum inhibitory concentration, B. subtilis, tube dilution, 37 ± 1 °C, 24 h
Experimental: (§1) The in vitro antimicrobial activity of synthesized compounds was done by tube dilution method against Gram-positive bacteria: Staphylococcus aureus, Bacillus subtilis, Gram-negative bacteria: Escherichia coli, Klebsiella pneumonia, Salmonella typhi and fungal: Candida albicans and Aspergillus niger strains using cefadroxil and fluconazole as standard. Dilutions of test and standard compounds were prepared in double strength nutrient broth for bacterial strains and Sabouraud dextrose broth for fungal strains.

Escherichia coli = experiment: Antimicrobial activity, tube dilution method (MIC); format: cell-based; conditions: 24 h
Experimental: as §1

Klebsiella pneumonia = experiment: Antimicrobial activity, tube dilution method (MIC); format: cell-based; conditions: Klebsiella pneumoniae, 24 h
Experimental: as §1

Salmonella typhi = experiment: Antimicrobial activity, tube dilution method (MIC); format: cell-based; conditions: 24 h; for MIC: Salmonella enterica, TYPHI, read-out: Minimum inhibitory concentration, S. typhi
Experimental: as §1

Staphylococcus aureus = experiment: Antimicrobial activity, tube dilution method (MIC); format: cell-based; conditions: 24 h, read-out: Minimum inhibitory concentration, S. aureus, tube dilution, 37 ± 1 °C, 24 h
Experimental: as §1

Aspergillus niger = experiment: Antifungal activity, tube dilution method (MIC); format: cell-based; conditions: 168 h, read-out: Minimum inhibitory concentration, A. niger, tube dilution, 25 ± 1 °C, 7 days
Experimental: as §1

Candida albicans = experiment: Antifungal activity, tube dilution method (MIC); format: cell-based; conditions: 48 h, read-out: Minimum inhibitory concentration, C. albicans, tube dilution, 37 ± 1 °C, 48 h
Experimental: as §1

[1] = test system: α-amylase enzyme (diastase); experiment: Antidiabetic activity: α-amylase inhibitory activity using diastase, colorimetric method; format: biochemical; conditions: for IC50 (antidiabetic activity, α-amylase): calculated via graph of % inhibition
Experimental: All the synthesized compounds were evaluated against α-amylase inhibitory activity by using diastase based on colorimetric method. 0.25 g of soluble potato starch was dissolved in 50 ml of 20 mM phosphate buffer by heating for 15 min. 1 mg diastase (amylase enzyme) was mixed in 100 ml of 20 mM phosphate buffer (pH 6.9) to obtain the enzyme solution. Different concentrations of all the synthesized derivatives were prepared by dissolving them in DMSO. […] 1 ml of enzyme solution was mixed with 1 ml of each synthesized derivatives and incubated for 10 min at 25 °C. Then 1 ml of this mixture was mixed with 1 ml of soluble potato starch solution in a tube and incubated for 10 min at 25 °C. Then tubes were closed after adding 1 ml of color reagent and placed into water bath for 15 min at 85 °C. The reaction mixture was removed from water bath after 15 min. After cooling, the reaction mixture was diluted with 9 ml of distilled water and the absorbance was taken at 540 nm in UV spectrophotometer. Blank solution was prepared by replacing the enzyme solution with buffer solution and absorbance was taken. Measurement of control was performed in identical manner by replacing the synthesized derivatives in 1 ml of DMSO.
Percentage inhibition of α-amylase enzyme was calculated by using following formula:1 %Inhibition=ABlank-ASample/ABlank×100

[2] = Antioxidant activity: free radical scavenging method by DPPH assay; conditions: for % inhibition (DPPH), 25 μg/ml / % inhibition (DPPH), 50 μg/ml / % inhibition (DPPH), 75 μg/ml / % inhibition (DPPH), 100 μg/ml: 30 min, 517 nm; for IC50 (antioxidant activity, DPPH): calculated via graph of % inhibition
Experimental: The antioxidant activity of the newly synthesized compounds were evaluated spectrophotometrically using free radical scavenging method by DPPH (2,2-diphenyl-1-picrylhydrazyl) assay. The DPPH is a stable free radical with maximal absorption at 517 nm and is reduced to a corresponding hydrazine when it reacting with hydrogen donors. […] DPPH solution (3 μg/ml) was prepared in methanol and DPPH (in 1:1) solution was used for blank reference. Four dilutions of different concentrations (25, 50, 75 and 100 μg/ml) of each synthesized compound and standard (ascorbic acid) were prepared in the methanol and 1 ml of each concentration was added to 1 ml of DPPH solution. The solution mixture was shaken vigorously and kept in dark place for 30 min at room temperature and absorbance was measured by UV at 517 nm. Percentage inhibition of Free radical DPPH was calculated as follows:1 %Inhibition=ABlank-ASample/ABlank×100 where, ABlank: absorbance of the blank reaction, ASample: absorbance of the test compound.

[3] = read-out: Minimum inhibitory concentration, E. coli, tube dilution, 37 ± 1 °C, 24 h
[4] = read-out: Minimum inhibitory concentration, K. pneumonia, tube dilution, 37 ± 1 °C, 24 h

| SMILES | melting point [°C] | MIC (Bacillus subtilis) [mM] | MIC (Escherichia coli; [3]) [mM] | MIC (Klebsiella pneumonia; [4]) [mM] | MIC (Salmonella typhi) [mM] | MIC (Staphylococcus aureus) [mM] | MIC (Aspergillus niger) [mM] | MIC (Candida albicans) [mM] | % inhibition (α-amylase), 25 μg/ml [1] [%] | % inhibition (α-amylase), 50 μg/ml [1] [%] | % inhibition (α-amylase), 75 μg/ml [1] [%] | % inhibition (α-amylase), 100 μg/ml [1] [%] | IC50 (antidiabetic activity, α-amylase) [1] [mg/L] | % inhibition (DPPH), 25 μg/ml [2] [%] | % inhibition (DPPH), 50 μg/ml [2] [%] | % inhibition (DPPH), 75 μg/ml [2] [%] | % inhibition (DPPH), 100 μg/ml [2] [%] | IC50 (antioxidant activity, DPPH) [2] [mg/L] | further results |
| --- | --- | --- | --- | --- | --- | --- | --- | --- | --- | --- | --- | --- | --- | --- | --- | --- | --- | --- | --- |
| O=C1NC(=O)/C(=C\c2cccc(Cl)c2)S1 [Compound 14, 5-(3-Chlorobenzylidene)thiazolidiine-2,4-dione] | 137 to 140 | – | – | – | – | – | – | – | – | – | – | – | – | – | – | – | – | – | – |
| CN(C)c1ccc(C=C2SC(=O)NC2=O)cc1 [Compound 6, 5-(4-(Dimethylamino)benzylidene)thiazolidine-2,4-dione] | 147 to 150 | 5 (≈ 1240 µg/mL) | 4.99 (≈ 1240 µg/mL) | 10.1 (≈ 2500 µg/mL) | 5 (≈ 1240 µg/mL) | 5 (≈ 1240 µg/mL) | 10.1 (≈ 2500 µg/mL) | 20.1 (≈ 4990 µg/mL) | 33.56 | 49.45 | 50.78 | 97.15 | 37.35 (≈ 150 µM) | 19.54 | 38.93 | 62.65 | 75.82 | 48.13 (≈ 194 µM) | – |
| COc1ccccc1C=C1SC(=O)NC1=O [Compound 15, 5-(2-Methoxybenzylidene)thiazolidine-2,4-dione] | 147 to 150 | 5.31 (≈ 1250 µg/mL) | 5.31 (≈ 1250 µg/mL) | – | 5.31 (≈ 1250 µg/mL) | 5.31 (≈ 1250 µg/mL) | 5.31 (≈ 1250 µg/mL) | 5.31 (≈ 1250 µg/mL) | 32.59 | 51.78 | 66.98 | 81.30 | 22.35 (≈ 95 µM) | 33.51 | 43.98 | 77.21 | 98.67 | 43.25 (≈ 184 µM) | – |
| O=C1NC(=O)C(=Cc2ccc(Br)cc2)S1 [Compound 9, 5-(4-Bromobenzylidene)thiazolidine-2,4-dione] | 150 to 152 | 8.79 (≈ 2500 µg/mL) | 8.79 (≈ 2500 µg/mL) | 8.79 (≈ 2500 µg/mL) | 4.3 (≈ 1220 µg/mL) | 4.3 (≈ 1220 µg/mL) | 4.3 (≈ 1220 µg/mL) | 4.3 (≈ 1220 µg/mL) | 24.73 | 53.78 | 68.34 | 89.37 | 41.67 (≈ 147 µM) | 36.83 | 45.41 | 71.51 | 87.34 | 27.66 (≈ 97.3 µM) | – |
| O=Cc1ccc(C=C2SC(=O)NC2=O)cc1 [Compound 21, 4-((2,4-Dioxothiazolidin-5-ylidene)methyl)benzaldehyde] | 147 to 150 | 5.3 (≈ 1240 µg/mL) | 5.3 (≈ 1240 µg/mL) | 10.7 (≈ 2500 µg/mL) | 5.3 (≈ 1240 µg/mL) | 5.3 (≈ 1240 µg/mL) | 5.3 (≈ 1240 µg/mL) | 5.3 (≈ 1240 µg/mL) | 21.98 | 47.28 | 70.56 | 74.76 | 38.65 (≈ 166 µM) | 17.91 | 41.64 | 75.98 | 92.32 | 55.51 (≈ 238 µM) | – |
| O=C1NC(=O)C(=Cc2cccc([N+](=O)[O-])c2)S1 [Compound 7, 5-(3-Nitrobenzylidene)thiazolidine-2,4-dione] | 110 to 113 | 9.9 (≈ 2480 µg/mL) | 4.99 (≈ 1250 µg/mL) | 4.99 (≈ 1250 µg/mL) | 4.99 (≈ 1250 µg/mL) | 4.99 (≈ 1250 µg/mL) | 9.9 (≈ 2480 µg/mL) | 4.99 (≈ 1250 µg/mL) | 24.72 | 35.71 | 64.87 | 97.15 | 56.09 (≈ 224 µM) | 20.51 | 35.61 | 79.74 | 86.04 | 55.23 (≈ 221 µM) | – |
| O=C1NC(=O)C(=Cc2ccc(Cl)cc2Cl)S1 [Compound 3, 5-(2,4-Dichlorobenzylidene)thiazolidine-2,4-dione] | – | 4.5 (≈ 1230 µg/mL) | 9.12 (≈ 2500 µg/mL) | 9.12 (≈ 2500 µg/mL) | 4.5 (≈ 1230 µg/mL) | 4.5 (≈ 1230 µg/mL) | 4.5 (≈ 1230 µg/mL) | 4.5 (≈ 1230 µg/mL) | 29.45 | 47.98 | 60.83 | 95.79 | 43.45 (≈ 159 µM) | 35.89 | 42.67 | 70.25 | 85.44 | 29.04 (≈ 106 µM) | – |
| COc1ccc(C=C2SC(=O)NC2=O)cc1OC [Compound 19, 5-(3,4-Dimethoxybenzylidene)thiazolidine-2,4-dione] | – | 4.7 (≈ 1250 µg/mL) | 4.7 (≈ 1250 µg/mL) | 9.4 (≈ 2490 µg/mL) | 4.7 (≈ 1250 µg/mL) | 4.7 (≈ 1250 µg/mL) | 4.7 (≈ 1250 µg/mL) | 4.7 (≈ 1250 µg/mL) | 29.33 | 47.77 | 58.34 | 90.86 | 40.01 (≈ 151 µM) | 28.64 | 39.67 | 73.41 | 90.05 | 46.03 (≈ 174 µM) | – |
| COc1cc(C=C2SC(=O)NC2=O)cc(OC)c1OC [Compound 10, 5-(3,4,5-Trimethoxybenzylidene)thiazolidine-2,4-dione] | 210 to 213 | – | 8.4 (≈ 2480 µg/mL) | 4.2 (≈ 1240 µg/mL) | 4.2 (≈ 1240 µg/mL) | – | – | – | 29.34 | 43.98 | 63.36 | 98.14 | 47.49 (≈ 161 µM) | 28.61 | 39.67 | 59.75 | 86.70 | 43.44 (≈ 147 µM) | Minimum inhibitory concentration, S. typhi (Salmonella typhi; tube dilution, 37 ± 1 °C): 4.20 μΜ/ml |
| O=C1NC(=O)C(=Cc2ccc(O)cc2)S1 [Compound 5, 5-(4-Hydroxybenzylidene)thiazolidine-2,4-dione] | – | 5.65 (≈ 1250 µg/mL) | – | – | 5.65 (≈ 1250 µg/mL) | 5.65 (≈ 1250 µg/mL) | 5.65 (≈ 1250 µg/mL) | 5.65 (≈ 1250 µg/mL) | 18.26 | 47.61 | 49.24 | 96.72 | 56.64 (≈ 256 µM) | 35.79 | 39.78 | 62.02 | 85.47 | 31.10 (≈ 141 µM) | MIC (Escherichia coli; tube dilution, 37 ± 1 °C, read-out: Minimum inhibitory concentration, E. coli): 11.3 mM (≈ 2500 µg/mL); MIC (Klebsiella pneumonia; tube dilution, 37 ± 1 °C, read-out: Minimum inhibitory concentration, K. pneumonia): 11.3 mM (≈ 2500 µg/mL) |
